The experiment can be described thus: Potency code of Table 2 (assay not stated).

`CCc1ccc(Oc2c(-c3ccc(OCc4cccc(Cl)c4)cc3O)nn(C)c2C(F)(F)F)cc1` [NUCC-0196296]: the Potency code result is given as “+ (>40 +)”.
On to `CCc1ccc(Oc2c(-c3ccc(OCc4cccc(OC)c4)cc3O)n[nH]c2C(F)(F)F)cc1` [NUCC-0196297], for which the Potency code entry is listed as “+ (>40 +)”.
Then `CCc1ccc(Oc2c(-c3ccc(OCc4cccc(OC)c4)cc3O)nn(C)c2C(F)(F)F)cc1` [NUCC-0196298], with “++ (30-40 ++)”; and `Cc1ccc(C)c(Oc2cn(C)nc2-c2ccc(OCCN3CCCCC3)cc2O)c1` [NUCC-0196299], with “+ (>40 +)”.
As to `Oc1cc(OCc2ccc(Cl)cc2)ccc1-c1n[nH]c(C(F)(F)F)c1Oc1cccc(F)c1` [NUCC-0196301], the Potency code result is recorded as “+ (>40 +)”.
In the case of `Cn1nc(-c2ccc(OCc3ccc(Cl)cc3)cc2O)c(Oc2cccc(F)c2)c1C(F)(F)F` [NUCC-0196302], the Potency code result is reported as “+ (>40 +)”.
The result for `Oc1cc(OCc2ccc(Cl)cc2)ccc1-c1n[nH]cc1Oc1ccc(Cl)cc1` [NUCC-0196303] reads “+ (>40 +)”.
Then `Cn1nc(-c2ccc(OCc3ccc(Cl)cc3)cc2O)c(Oc2ccccc2Cl)c1C(F)(F)F` [NUCC-0196304], with “+++ (10-30 +++)”.
Then `Cn1cc(Oc2ccccc2Cl)c(-c2ccc(OCc3ccc(Cl)cc3)cc2O)n1` [NUCC-0196305], with “++++ (<10 ++++)”; and `COc1ccc(-c2c(-c3ccc(OCc4ccc(Cl)cc4)cc3O)noc2C(F)(F)F)cc1OC` [NUCC-0196306], with “+ (>40 +)”.
As for `COc1ccc(-c2c(-c3ccc(OCc4ccc(Cl)cc4)cc3O)nn(C)c2C(F)(F)F)cc1OC` [NUCC-0196311], the Potency code entry was “+ (>40 +)”.
The result for `COc1ccc(-c2c(-c3ccc(OCc4ccc(Cl)cc4)cc3O)n[nH]c2C(F)(F)F)cc1` [NUCC-0196312] reads “+ (>40 +)”.
For the compound `Oc1cc(OCc2ccc(Cl)cc2)ccc1-c1cc(C(F)(F)F)[nH]n1` [NUCC-0196313], the Potency code result is listed as “++++ (<10 ++++)”.
The result for `Cn1nc(-c2ccc(OCc3ccc(Cl)cc3)cc2O)cc1C(F)(F)F` [NUCC-0196314.2] reads “+ (>40 +)”; that for `COc1ccc(-c2c(-c3ccc(OCc4ccc(Cl)cc4)cc3O)nn(C)c2C(F)(F)F)cc1` [NUCC-0196340], “++ (30-40 ++)”; that for `Cn1nc(-c2ccc(OCCN3CCOCC3)cc2O)c(Oc2ccccc2Cl)c1C(F)(F)F` [NUCC-0196341], “+ (>40 +)”.
Turning to `Oc1cc(OCc2ccc(Cl)cc2)ccc1-c1n[nH]cc1Oc1ccccc1Cl` [NUCC-0196343], the Potency code entry was “+ (>40 +)”.
The result for `Cc1ccc(-c2c(OCc3ccc(Cl)cc3)ccc(-c3cc(C(F)(F)F)[nH]n3)c2O)cc1` [NUCC-0196344] reads “+++ (10-30 +++)”; that for `Cc1ccc(-c2c[nH]nc2-c2ccc(OCc3ccc(Cl)cc3)cc2O)cc1` [NUCC-0196345], “+ (>40 +)”; that for `Cc1ccc(-c2cn(C)nc2-c2ccc(OCc3ccc(Cl)cc3)cc2O)cc1` [NUCC-0196346], “+ (>40 +)”.
`Oc1c(-c2cc(C(F)(F)F)[nH]n2)ccc(OCc2ccc(Cl)cc2)c1-c1ccc(F)cc1` [NUCC-0196347]: the Potency code result is “+ (>40 +)”.
On to `Cn1nc(-c2ccc(OCc3ccc(Cl)cc3)c(-c3ccc(F)cc3)c2O)cc1C(F)(F)F` [NUCC-0196348], for which the Potency code entry is “+++ (10-30 +++)”.
As for `Cn1cc(-c2ccc(F)cc2)c(-c2ccc(OCc3ccc(Cl)cc3)cc2O)n1` [NUCC-0196349], the Potency code result was “+ (>40 +)”.
Then `Oc1cc(OCc2ccc(Cl)cc2)ccc1-c1n[nH]cc1-c1cccc(Cl)c1` [NUCC-0196350], with “+++ (10-30 +++)”; and `Cn1cc(-c2cccc(Cl)c2)c(-c2ccc(OCc3ccc(Cl)cc3)cc2O)n1` [NUCC-0196351], with “+ (>40 +)”; and `CCc1ccc(Oc2c(-c3ccc(OCc4ccc(Cl)cc4)cc3OC)nn(C)c2C(F)(F)F)cc1` [NUCC-0196352], with “+ (>40 +)”.
In the case of `CCc1ccc(Oc2c(-c3ccc(OCc4ccc(Cl)cc4)cc3)nn(C)c2C(F)(F)F)cc1` [NUCC-0196353], the Potency code result is listed as “+ (>40 +)”.
Then `CCc1ccc(Oc2c(-c3ccc(OCc4ccc(Cl)c(Cl)c4)cc3O)nn(C)c2C(F)(F)F)cc1` [NUCC-0196354], with “+ (>40 +)”; and `CCc1ccc(Oc2c(-c3ccc(OCc4ccc(Cl)c(Cl)c4)cc3O)n[nH]c2C(F)(F)F)cc1` [NUCC-0196355], with “+++ (10-30 +++)”.
Take `CCc1ccc(Oc2c(-c3ccc(OCCc4ccc(Cl)cc4)cc3O)nn(C)c2C(F)(F)F)cc1` [NUCC-0196356]: the Potency code result was “+ (>40 +)”.
Consider `CCc1ccc(Oc2c(-c3ccc(OCCc4ccc(Cl)cc4)cc3O)n[nH]c2C(F)(F)F)cc1` [NUCC-0196357], for which the Potency code result was “+++ (10-30 +++)”.
For `CCc1ccc(Oc2c(-c3ccc(OCc4ccc(OC)cc4)cc3O)nn(C)c2C(F)(F)F)cc1` [NUCC-0196358], the Potency code entry is recorded as “+ (>40 +)”.
Then `CCc1ccc(Oc2c(-c3ccc(OCc4ccc(OC)cc4)cc3O)n[nH]c2C(F)(F)F)cc1` [NUCC-0196359], with “+ (>40 +)”; and `Cn1nc(-c2ccc(OCc3ccc(Cl)cc3)c(-c3cc(C(F)(F)F)cc(C(F)(F)F)c3)c2O)cc1C(F)(F)F` [NUCC-0196360], with “+ (>40 +)”; and `Oc1c(-c2cc(C(F)(F)F)[nH]n2)ccc(OCc2ccc(Cl)cc2)c1-c1cc(C(F)(F)F)cc(C(F)(F)F)c1` [NUCC-0196362], with “++ (30-40 ++)”.
As to `Cn1nc(-c2ccc(OCc3ccc(Cl)cc3)c(-c3cccnc3)c2O)cc1C(F)(F)F` [NUCC-0196364], the Potency code result is recorded as “+ (>40 +)”.
The result for `Cn1nc(C(F)(F)F)cc1-c1ccc(OCc2ccc(Cl)cc2)c(-c2cccnc2)c1O` [NUCC-0196365] reads “+ (>40 +)”; that for `Oc1c(-c2cc(C(F)(F)F)[nH]n2)ccc(OCc2ccc(Cl)cc2)c1-c1cccnc1` [NUCC-0196366], “+ (>40 +)”.
Then `Oc1cc(OCc2ccc(Cl)cc2)ccc1-c1n[nH]cc1-c1ccccc1` [NUCC-0198293], with “+ (>40 +)”; and `Cn1cc(-c2ccccc2)c(-c2ccc(OCc3ccc(Cl)cc3)cc2O)n1` [NUCC-0198294], with “+ (>40 +)”.
The result for `Oc1cc(OCc2ccc(Cl)cc2)ccc1-c1n[nH]c(C(F)(F)F)c1-c1ccccc1` [NUCC-0198295] reads “++++ (<10 ++++)”; that for `Cn1nc(C(F)(F)F)c(-c2ccccc2)c1-c1ccc(OCc2ccc(Cl)cc2)cc1O` [NUCC-0198296], “+ (>40 +)”; that for `Cn1nc(-c2ccc(OCc3ccc(Cl)cc3)cc2O)c(-c2ccccc2)c1C(F)(F)F` [NUCC-0198297], “+ (>40 +)”.
As for `Cc1[nH]nc(-c2ccc(OCc3ccc(Cl)cc3)cc2O)c1-c1ccccc1` [NUCC-0198298], the Potency code entry is reported as “+ (>40 +)”.
As for `Cc1nn(C)c(-c2ccc(OCc3ccc(Cl)cc3)cc2O)c1-c1ccccc1` [NUCC-0198299], the Potency code result is listed as “+ (>40 +)”.
Then `Cc1c(-c2ccccc2)c(-c2ccc(OCc3ccc(Cl)cc3)cc2O)nn1C` [NUCC-0198300], with “+ (>40 +)”; and `CCc1[nH]nc(-c2ccc(OCc3ccc(Cl)cc3)cc2O)c1-c1ccccc1` [NUCC-0198301], with “+ (>40 +)”.

For the origin of these results see US20200392116A1, “SUBSTITUTED HETEROCYCLES AS c-MYC TARGETING AGENTS” (NORTHWESTERN UNIVERSITY, priority 2019, published 2020).
